# Earlier results, collected in patent publication US20160120848A1, “SPECIFIC CANCER TREATMENT REGIMES WITH GANETESPIB” (SYNTA PHARMACEUTICALS CORP., priority 2013, published 2016).
# How the values were obtained:
# FLT3 with Hsp90 = settings: cited from earlier work
# [1] = tested on: leukemia cells that express either wild type FLT3 or FLT3-ITD mutations; settings: cells expressing wild type FLT3 or FLT3-ITD mutations; cited from earlier work
# Kasumi-1 cells = settings: Kasumi-1, acute myeloid leukemia cell line with c-Kit mutation; cited from earlier work
compound,measurement,setting,value
C=CCNC1=C2C[C@@H](C)C[C@H](OC)[C@H](O)[C@@H](C)/C=C(\C)[C@H](OC(N)=O)[C@@H](OC)/C=C\C=C(/C)C(=O)NC(=CC1=O)C2=O [17AAG],effect on association of FLT3 with Hsp90,FLT3 with Hsp90,disrupt the association of FLT3 with Hsp90
same,growth of leukemia cells,[1],inhibited
same,apoptosis,Kasumi-1 cells,induce apoptosis
